Data set [1] has as its system CLL cells. Briefly: CLL cell viability by MTT dye assay. It counts as cell-based. To be noted: Homo sapiens, 24 h, read-out: cell viability. As for the experimental part:
Indanocine is commercially available from Calbiochem (Cat. No. 402080). Leoni L. M., et al., J Natl Cancer Inst. 92:217-224 (2000). Hua X. H., et al., Cancer Res. 61:7248-7254 (2001). CLL cells were isolated and cultured as described above. CLL cells at a density of 1×10^6 ml were incubated for 24 hours in RPMI 1640 medium supplemented with 10% fetal bovine serum in the presence of 1 μM indanocine (abbreviated 178) and either 0, 1, or 10 μM mizoribine. Cell viability was assessed by the MTT [3-(4,5-dimethylthiazol-2-yl)-2,5-diphenyltetrazolium bromide) dye assay.

For data set [2], the system named is MTAP-deleted chronic myelogenous leukemia cells (K562). Description: Cell proliferation of MTAP-deleted K562 cells by MTT dye assay. It counts as cell-based. Particulars: read-out: IC50 (amount of drug needed to block proliferation by 50%). As for the experimental part: MTAP-deleted chronic myelogenous leukemia cells (K562) were pre-treated for the indicated times (24, 48, 72 hours) with concentrations of mizoribine (squares) or mizoribine base (triangles) from 200 μM to 0.5 μM. At the end of the incubation time cell proliferation was tested by the MTT dye assay. As indicated by FIG. 3, the IC50 (amount of drug needed to block proliferation by 50%) of mizoribine or its base progressively declines as the time of exposure to drug increases. After 48 hours of incubation with mizoribine or mizoribine base, the IC50 for the drug is approximately 100 micromolar. After 72 hours of incubation with mizoribine or mizoribine base, the IC50 for the drug is approximately 10 micromolar.
In general terms: Tetrazolium dyes change colour on reduction, which living cells bring about.

A further data set concerns activated PBL. Briefly: α-tubulin polymerization assay in PBL activated with anti-CD3 and anti-CD28 antibodies. It counts as cell-based, human. Particulars: PBL activated 24 hrs with anti-CD3 and anti-CD28, paclitaxel for one hour. As for the experimental part: (§1) Peripheral blood from CLL patients or normal donors was layered on top of Ficoll-Paque Plus (Pharmacia, NJ) and centrifuged at 1200×g for twenty minutes. The enriched peripheral blood mononuclear cells (PBL) were washed several times with Ca++, Mg++-free HBSS.
(§2) All primary cells were cultured in RPMI 1640 medium with 20% fetal bovine serum (regular medium) at a density of 2-5×10^6 cell/ml. In some cases, the PBL were stimulated for 24 hours with 1 μg/ml anti-CD3 and anti-CD28 antibodies (Alexis, San Diego, Calif.) prior to immunoblot analysis.
(§3) α-tubulin Polymerization Assay. For each data point, 2×10^6 of cells were incubated in 2 ml of regular medium containing drugs for various periods of time. The cells were then washed twice at room temperature, and resuspended in 50 μl of α-tubulin extraction buffer (1 mM MgC2, 2 m MEGTA, 0.5% NP-40, 20 mM Tris-HCl, pH=6.8) supplemented with 2 mM phenylmethysulfonyl fluoride, and a protease inhibitor cocktail (Sigma). After a brief but vigorous vortex, the lysates were incubated at room temperature for 5 minutes, and then centrifuged at 16,000×g for 5 minutes to separate the soluble from polymerized α-tubulin. The supernatant and pellet fractions were resolved on 10-20% pre-cast tris-glycine gels (Novex, San Diego, Calif.) and then subjected to immune blotting with a specific anti-α-tubulin antibody. […]

Data set [3] deals with CLL cells. Description: α-tubulin polymerization assay in CLL cells. Format: cell-based, human. To be noted: paclitaxel. As for the experimental part: Lymphocyte Cultures. The Institutional Review Board of the University of California, San Diego approved this study, and all patients gave informed written consent to participation. Subjects had CLL according to National Cancer Institute (NCI) criteria of any Rai stage. None of the patients were in active chemotherapeutic treatments. Flow cytometric analysis determined that all specimens contained more than 90% CD5+CD19+B cells.
as §1, §2
α-tubulin Polymerization Assay. For each data point, 2×10^6 of cells were incubated in 2 ml of regular medium containing drugs for various periods of time. The cells were then washed twice at room temperature, and resuspended in 50 μl of α-tubulin extraction buffer (1 mM MgC2, 2 m MEGTA, 0.5% NP-40, 20 mM Tris-HCl, pH=6.8) supplemented with 2 mM phenylmethysulfonyl fluoride, and a protease inhibitor cocktail (Sigma). […]

Data set [4] has as its system normal PBL (peripheral blood mononuclear cells). Briefly: α-tubulin polymerization assay in normal PBL (soluble vs particulate fraction, immunoblot). To be noted: normal resting PBL, paclitaxel for one hour. Format: cell-based, human. As for the experimental part:
as §1, §2, §3
A general note: In western blotting, separated proteins are transferred to a membrane and probed.

The conditions of data set [5]: in vivo; cited from earlier work.
The test system of data set [6] is MTAP-deleted lung cancer cells (A549). Briefly: Cell proliferation of MTAP-deleted A549 cells by MTT assay, mizoribine base pre-treatment then L-alanosine. Format: cell-based. Particulars: Homo sapiens. As for the experimental part:
MTAP-deleted lung cancer cells (A549) were pre-treated for 24 hours with control vehicle (square), or the indicated concentrations of mizoribine-base (10 μM, 25 μM and 50 μM). After 24 hours in culture L-alanosine was added at decreasing concentrations (½ dilutions) starting at 40 μM. Cell were then incubated for an additional 48 hours. Cell proliferation was tested by the MTT assay. As indicated by FIG. 4, the IC50 and IC90 (amount of drug needed to block proliferation by 50% or 90%) of L-alanosine declines in the presence of mizoribine base.

The mark [7] stands for this setting: A549, 48 h, A549, without mizoribine base, 48 hours L-alanosine.
The mark [8] stands for this setting: A549, A549, 24 hours pre-treatment with 10 micromolar mizoribine base.
[9] abbreviates: A549, A549, 24 hours pre-treatment with 25 micromolar mizoribine base.
[10] abbreviates: A549, A549, 24 hours pre-treatment with 50 micromolar mizoribine base.

Entries after “also recorded” stand apart in the source; their conditions may differ. Where two headings read alike, the source gives them in different places.

As usually defined, the viability is a read-out of living cells in per cent, often relative to untreated cells. Consider `COc1cc2c(c(N)c1OC)C(=O)/C(=C\c1cc(C)c(O)c(C)c1)C2` [indanocine], for which the viability at 1 µM in the data set with CLL cells [1] is 24%.
Regarding `NC(=O)c1[nH]cnc1O` [mizoribine base, mizoribine aglycone], the IC50 in data set [2] (K562, 48 hours of incubation) is about 100 µM; in data set [2] (K562, 72 hours of incubation), about 10 µM.
For `CC(=O)O[C@H]1C(=O)[C@@]2(C)[C@H]([C@H](OC(=O)c3ccccc3)[C@]3(O)C[C@H](OC(=O)[C@H](O)[C@@H](NC(=O)c4ccccc4)c4ccccc4)C(C)=C1C3(C)C)[C@]1(OC(C)=O)CO[C@@H]1C[C@@H]2O` [paclitaxel], the “α-tubulin in the particulate fraction after treatment” value is reported as “most of the α-tubulin shifted to the particulate fraction; also recorded: a shift of α-tubulin to the particulate-bound fraction” with activated PBL, “nearly complete relocalization of α-tubulin to the particulate fraction” in the data set on CLL cells [3] and “only a minimal increase of α-tubulin in the particulate fraction; also recorded: did not change this pattern” in data set [4].
As for `NC(=O)c1ncn([C@@H]2O[C@H](CO)[C@@H](O)[C@H]2O)c1O` [mizoribine], the IC50 in data set [2] (Homo sapiens, K562, 48 hours of incubation) is about 100 µM. In data set [2] (Homo sapiens, K562, 72 hours of incubation), the IC50 was about 10 µM. In data set [5], the plasma half life result was “a few hours”. Further, in the data set with CLL cells [1], the viability at 1 µM amounted to 55% and the viability at 10 µM amounted to 45%.
One may read the IC90 as the point of the concentration-response curve where the effect stands at 90%. Regarding `N[C@@H](CN(O)N=O)C(=O)O` [L-alanosine], the IC50 in data set [6] (setting [7]) stood at 0.5 µM; in data set [6] (setting [8]), 0.5 µM; in data set [6] (setting [9]), 0.25 µM; in data set [6] (setting [10]), 0.15 µM. The 90% effect concentration (IC90) in data set [6] (setting [7]) was determined as 20 µM; in data set [6] (setting [8]), 9 µM; in data set [6] (setting [9]), 6 µM; in data set [6] (setting [10]) it was 4 µM.

These data come from patent US20040127435A1, “Uses for inhibitors of inosine monophosphate dehydrogenase” (REGENTS OF THE UNIVERSITY OF CALIFORNIA, priority 2002, published 2004).
